Measurements taken from US10357493B2, “Metalloenzyme inhibitor compounds” (Selenity Therapeutics (Bermuda), Ltd., priority 2017, dated 2019).

Experiments:
HDAC1 = HDAC1 (Homo sapiens (Human), UniProt Q13547); test: HDAC1 enzymatic assay; type: biochemical; conditions: read-out: Human HDAC1 IC50
In short: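 HDAC1 activity was measured in duplicate 50 μl reactions containing 0.5 ng HDAC1, 10 uM of HDAC substrate, and test compound in buffer (50 mM Tris-HCl, pH 7.4, 137 mM NaCl, 2.7 mM KCl, 0.05% Tween 20, 5 μg BSA) with 1% DMSO, incubated 17 hours at room temperature. HDAC Developer was then added for 20 minutes and fluorescence read at 360/460 nm.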

HDAC6 = HDAC6 (Homo sapiens (Human), UniProt Q9UBN7); test: HDAC6 enzymatic assay; type: biochemical; conditions: read-out: Human HDAC6 IC50
In short: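 Human HDAC6 activity was measured in duplicate 50 μl reactions holding 2 ng HDAC6, 10 uM of HDAC substrate and test compound in HDAC assay buffer (50 mM Tris-HCl, pH 7.4, 137 mM NaCl, 2.7 mM KCl, 0.05% Tween 20, 5 μg BSA) with 1% DMSO, for 17 hours at room temperature. HDAC Developer was added for 20 minutes before reading fluorescence at 360/460 nm.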

Chain of HDAC1 (Q13547 whole entry): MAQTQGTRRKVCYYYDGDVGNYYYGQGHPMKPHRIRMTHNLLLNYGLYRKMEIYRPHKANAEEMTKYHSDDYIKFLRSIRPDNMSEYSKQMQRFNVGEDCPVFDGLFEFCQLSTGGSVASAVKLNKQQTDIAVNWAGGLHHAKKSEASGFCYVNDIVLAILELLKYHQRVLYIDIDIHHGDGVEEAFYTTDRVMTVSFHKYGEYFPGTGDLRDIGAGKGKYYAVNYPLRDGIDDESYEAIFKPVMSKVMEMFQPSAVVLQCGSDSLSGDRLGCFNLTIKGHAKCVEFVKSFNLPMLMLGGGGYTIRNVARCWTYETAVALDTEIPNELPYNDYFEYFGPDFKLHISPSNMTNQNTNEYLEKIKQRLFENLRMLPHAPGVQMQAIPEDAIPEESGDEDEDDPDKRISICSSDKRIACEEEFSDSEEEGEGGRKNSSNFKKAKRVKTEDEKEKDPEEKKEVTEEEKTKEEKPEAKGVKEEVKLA
Chain of HDAC6 (Q9UBN7 whole entry): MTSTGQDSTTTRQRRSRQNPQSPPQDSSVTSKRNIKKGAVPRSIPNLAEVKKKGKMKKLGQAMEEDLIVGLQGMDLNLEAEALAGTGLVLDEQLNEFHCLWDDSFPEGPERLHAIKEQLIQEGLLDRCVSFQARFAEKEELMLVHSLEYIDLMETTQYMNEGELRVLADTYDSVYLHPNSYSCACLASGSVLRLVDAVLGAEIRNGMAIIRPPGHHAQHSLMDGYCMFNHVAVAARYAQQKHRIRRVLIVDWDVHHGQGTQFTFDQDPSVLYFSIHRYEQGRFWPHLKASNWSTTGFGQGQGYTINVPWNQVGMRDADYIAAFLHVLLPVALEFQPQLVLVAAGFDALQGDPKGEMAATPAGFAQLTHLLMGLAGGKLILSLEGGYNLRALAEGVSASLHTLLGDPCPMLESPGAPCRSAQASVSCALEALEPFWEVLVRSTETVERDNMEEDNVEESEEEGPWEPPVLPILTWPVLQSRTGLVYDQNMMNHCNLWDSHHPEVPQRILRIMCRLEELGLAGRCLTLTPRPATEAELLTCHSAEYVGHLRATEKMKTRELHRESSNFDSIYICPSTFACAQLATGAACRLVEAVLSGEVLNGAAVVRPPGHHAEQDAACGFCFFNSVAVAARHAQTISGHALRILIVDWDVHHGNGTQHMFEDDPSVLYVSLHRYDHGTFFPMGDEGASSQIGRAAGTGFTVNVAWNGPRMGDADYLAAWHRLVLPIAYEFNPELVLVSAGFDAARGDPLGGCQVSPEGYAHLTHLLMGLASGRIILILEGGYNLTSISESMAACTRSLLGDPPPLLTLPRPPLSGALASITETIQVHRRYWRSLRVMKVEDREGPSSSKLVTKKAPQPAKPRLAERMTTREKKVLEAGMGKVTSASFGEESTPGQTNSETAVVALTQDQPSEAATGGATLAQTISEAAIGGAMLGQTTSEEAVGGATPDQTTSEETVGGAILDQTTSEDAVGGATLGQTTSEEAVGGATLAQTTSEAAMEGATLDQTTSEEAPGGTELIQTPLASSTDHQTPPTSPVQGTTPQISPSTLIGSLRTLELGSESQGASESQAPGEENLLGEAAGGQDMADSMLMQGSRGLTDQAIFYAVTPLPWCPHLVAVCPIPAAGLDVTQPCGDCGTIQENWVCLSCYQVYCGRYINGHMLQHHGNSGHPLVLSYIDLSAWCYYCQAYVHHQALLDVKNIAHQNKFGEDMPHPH

| SMILES | IC50 (HDAC1) | IC50 (HDAC6) |
| --- | --- | --- |
| N#Cc1ccc(C2(Nc3ncc(-c4nnc(C(F)F)o4)cn3)CC2)cc1 [Example 48, 4-(1-((5-(5-(difluoromethyl)-1,3,4-oxadiazol-2-yl)pyrimidin-2-yl)amino)cyclopropyl) benzonitrile] | > 30000 nM | 46 nM |
| FC(F)c1nnc(-c2cnc(NC3(c4cccc(C(F)(F)F)c4)CC3)nc2)o1 [Example 49, 5-(5-(difluoromethyl)-1,3,4-oxadiazol-2-yl)-N-(1-(3-(trifluoromethyl)phenyl)cyclopropyl) pyrimidin-2-amine] | > 30000 nM | 16 nM |
| FC(F)c1nnc(-c2cnc(NC3(c4ccc(Cl)cc4)CC3)nc2)o1 [Example 50, N-(1-(4-chlorophenyl)cyclopropyl)-5-(5-(difluoromethyl)-1,3,4-oxadiazol-2-yl)pyrimidin-2-amine] | > 30000 nM | 30 nM |
| FC(F)c1nnc(-c2cnc(NC3(c4cccc(Cl)c4)CC3)nc2)o1 [Example 51, N-(1-(3-chlorophenyl)cyclopropyl)-5-(5-(difluoromethyl)-1,3,4-oxadiazol-2-yl)pyrimidin-2-amine] | > 30000 nM | 15 nM |
| FC(F)c1nnc(-c2cnc(NC3(c4ccccc4Cl)CC3)nc2)o1 [Example 52, N-(1-(2-chlorophenyl)cyclopropyl)-5-(5-(difluoromethyl)-1,3,4-oxadiazol-2-yl)pyrimidin-2-amine] | > 30000 nM | 6 nM |
| FC(F)c1nnc(-c2cnc(NC3(c4cccc(OC(F)(F)F)c4)CC3)nc2)o1 [Example 53, 5-(5-(difluoromethyl)-1,3,4-oxadiazol-2-yl)-N-(1-(3-(trifluoromethoxy)phenyl)cyclopropyl) pyrimidin-2-amine] | > 30000 nM | 23 nM |
| FC(F)c1nnc(-c2cnc(NC3(c4ccc(OC(F)(F)F)cc4)CC3)nc2)o1 [Example 54, 5-(5-(difluoromethyl)-1,3,4-oxadiazol-2-yl)-N-(1-(4-(trifluoromethoxy)phenyl)cyclopropyl) pyrimidin-2-amine] | > 30000 nM | 22 nM |
| FC(F)c1nnc(-c2cnc(NC3(c4ccccc4OC(F)(F)F)CC3)nc2)o1 [Example 55, 5-(5-(difluoromethyl)-1,3,4-oxadiazol-2-yl)-N-(1-(2-(trifluoromethoxy)phenyl)cyclopropyl) pyrimidin-2-amine] | > 30000 nM | 20 nM |
| Fc1ccccc1C1(Nc2ncc(-c3nnc(C(F)F)o3)cn2)CC1 [Example 56, 5-(5-(difluoromethyl)-1,3,4-oxadiazol-2-yl)-N-(1-(2-fluorophenyl)cyclopropyl)pyrimidin-2-amine] | > 100000 nM | 6 nM |
| Fc1cccc(C2(Nc3ncc(-c4nnc(C(F)F)o4)cn3)CC2)c1 [Example 57, 5-(5-(difluoromethyl)-1,3,4-oxadiazol-2-yl)-N-(1-(3-fluorophenyl)cyclopropyl)pyrimidin-2-amine] | > 100000 nM | 15 nM |
| FC(F)c1nnc(-c2cnc(NC3(c4ccccc4C(F)(F)F)CC3)nc2)o1 [Example 58, 5-(5-(difluoromethyl)-1,3,4-oxadiazol-2-yl)-N-(1-(2-(trifluoromethyl)phenyl)cyclopropyl) pyrimidin-2-amine] | > 30000 nM | 40 nM |
| Fc1ccc(C2(Nc3ncc(-c4nnc(C(F)F)o4)cn3)CC2)cc1F [Example 59, 5-(5-(difluoromethyl)-1,3,4-oxadiazol-2-yl)-N-(1-(3,4-difluorophenyl)cyclopropyl) pyrimidin-2-amine] | > 30000 nM | 21 nM |
| Fc1cccc(C2(Nc3ncc(-c4nnc(C(F)F)o4)cn3)CC2)c1F [Example 60, 5-(5-(difluoromethyl)-1,3,4-oxadiazol-2-yl)-N-(1-(2,3-difluorophenyl)cyclopropyl) pyrimidin-2-amine] | > 30000 nM | 22 nM |
| Fc1ccc(F)c(C2(Nc3ncc(-c4nnc(C(F)F)o4)cn3)CC2)c1 [Example 61, 5-(5-(difluoromethyl)-1,3,4-oxadiazol-2-yl)-N-(1-(2,5-difluorophenyl)cyclopropyl) pyrimidin-2-amine] | > 30000 nM | 22 nM |
